Results on one compound are retold here after PMC6346292 (Chemical Science, 2018).

Each structure is given as a SMILES string.

In one assay the target is T1, IL-8 (Homo sapiens, UniProt P10145).
T1 sequence (P10145 21-99): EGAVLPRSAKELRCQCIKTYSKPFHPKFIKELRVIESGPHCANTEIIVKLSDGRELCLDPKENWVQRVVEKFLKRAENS
The experiment in a line: FP competition assay. It counts as binding. Conditions: FP competition with probe 15 (table footnote).

Another assay addresses T2, BMP-2 (Homo sapiens, UniProt P12643).
T2 sequence (P12643 283-396): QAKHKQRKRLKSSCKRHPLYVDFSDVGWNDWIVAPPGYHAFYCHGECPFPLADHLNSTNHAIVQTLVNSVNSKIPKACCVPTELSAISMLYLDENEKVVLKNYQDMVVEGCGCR
Description: FP competition assay. It is filed as binding. Conditions: FP competition with probe 15 (table footnote).

The target in another assay is T3, Sclerostin (Homo sapiens, UniProt Q9BQB4).
T3 sequence (Q9BQB4 24-213): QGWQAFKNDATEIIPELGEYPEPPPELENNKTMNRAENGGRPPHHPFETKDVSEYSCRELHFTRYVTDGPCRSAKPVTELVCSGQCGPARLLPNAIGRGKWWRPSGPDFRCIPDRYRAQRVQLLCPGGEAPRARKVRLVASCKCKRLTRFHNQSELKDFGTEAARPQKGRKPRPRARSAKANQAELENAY
The experiment in a line: FP competition assay. It is filed as binding. Conditions: FP competition with probe 15 (table footnote).

The subject of assay [1] is antithrombine III (AT-III). Conditions: cited from earlier work.

Take `CO[C@H]1O[C@H](COS(=O)(=O)O)[C@@H](O[C@@H]2O[C@@H](C(=O)O)[C@@H](O[C@H]3O[C@H](COS(=O)(=O)O)[C@@H](O[C@@H]4O[C@H](C(=O)O)[C@@H](O[C@H]5O[C@H](COS(=O)(=O)O)[C@@H](O)[C@H](O)[C@H]5NS(=O)(=O)O)[C@H](O)[C@H]4O)[C@H](OS(=O)(=O)O)[C@H]3NS(=O)(=O)O)[C@H](O)[C@H]2OS(=O)(=O)O)[C@H](O)[C@H]1NS(=O)(=O)O` [Fondaparinux, fondaparinux]: the Kd (usually the constant that tells how readily two partners part at equilibrium) on IL-8 was 19 ± 2.5 µM; on BMP-2, 80.9 ± 8.5 µM; on Sclerostin it was 629 ± 335 µM. In assay [1], the “ligand affinity class” value was “nanomolar ligand”.
